Experimental data as given in publication PMC4239038, “The Potent Cdc7-Dbf4 (DDK) Kinase Inhibitor XL413 Has Limited Activity in Many Cancer Cell Lines and Discovery of Potential New DDK Inhibitor Scaffolds” (PLoS ONE, 2014).
Several values for one entry are separate records, joined by “and”; a condition that tells them apart may be missing. Equal values may be shown once. Where a name gives a salt, the structure may show the parent alone. Read-outs that look alike come from different tables or passages of the source.

Tests used:
DDK = conditions: read-out: DDK IC50 (in vitro), cited from earlier work
purified Cdk9 = system: purified Cdk9; set-up: method as in PMID 18469809; conditions: purified Cdk9 ref 43; cited from earlier work
Colo-205 cells [1] = conditions: Colo-205, 24 hours
human cell lines = conditions: average from 61 human cell lines ref 42,43; read-out: Cellular Proliferation IC50; cited from earlier work
Colo-205 cells [2] = assay: Cell viability, CellTiter-Glo; format: cell-based; conditions: Homo sapiens; Colo-205, 72 hrs post drug addition
[3] = system: Mcm2 phosphorylation in Colo-205 cells; assay: Immunoblot of DDK-dependent Mcm2 phosphorylation; format: cell-based; conditions: Colo-205, 5 µM, 24 hours
HCC1954 cells [4] = assay: Caspase 3/7 activity (apoptosis); format: cell-based; conditions: for Apoptosis induction (Caspase 3/7 activity): HCC1954, 24 hours
Experimental: Caspase 3/7 activity and viable cell number were then measured using the Caspase-Glo 3/7 assay (Promega) and CellTiter-Glo assay (Promega), respectively.

HCT116 (p53-/-) cells = assay: Cell viability, CellTiter-Glo; format: cell-based; conditions: Homo sapiens, HCT-116, 72 hrs post drug addition
MDA-MB-453 = assay: Cell viability at 5 µM inhibitor; conditions: MDA-MB-453, 5 µM, 72 hrs, relative to vehicle
HCC1954 cells [5] = assay: Cell viability, CellTiter-Glo; format: cell-based; conditions: Homo sapiens, HCC1954, 72 hrs post drug addition
MCF-7 = assay: Cell viability at 5 µM inhibitor; conditions: MCF-7, 5 µM, 72 hrs, relative to vehicle
HCT116 (p53+/+) cells = assay: Cell viability, CellTiter-Glo; format: cell-based; conditions: Homo sapiens, HCT-116; HCT116 (p53+/+), 72 hrs post drug addition
[6] = system: Mcm2 Serine 53 phosphorylation in HCC1954 cells; assay: Immunoblot of DDK-dependent Mcm2 phosphorylation; format: cell-based
Experimental: Whole cell extracts were prepared by re-suspending the pellets in RIPA buffer (150 mM NaCl, 1% NP-40, 0.5% sodium deoxycholate, 0.1% SDS, 50 mM Tris HCl, pH 8) containing protease inhibitors (100 µM PMSF, 1 mM Benzamide, 2.5 µg/ml Pepstatin A, 10 µg/ml Leupeptin, and 10 µg/ml Aprotinin) and phosphatase inhibitors (1 mM each NaF, Na3VO4 and Na4P2O7). Protein concentration was measured using the BCA protein assay kit (Pierce) according to manufacturer's protocol. Equal amounts of protein were subjected to SDS-PAGE and transferred to a nitrocellulose membrane (Millipore). Transfer efficiency and equal loading was confirmed by Ponceau S staining. Following primary and secondary antibody treatments, proteins were visualized using SuperSignal West Pico solutions (Thermo Scientific). Anti-Mcm2 and anti-S53-phospho-Mcm2 antibodies were purchased from Bethyl Laboratories; anti-β-actin was from Sigma; anti-mouse and anti-rabbit HRP antibodies were from GE Healthcare; and anti-Cdc7 and anti-Dbf4 antibodies were described previously.
Effective cellular uptake of the DDK inhibitor should compromise DDK activity in vivo. Among the many targets of DDK are components of the replicative Mcm2–7 helicase. Serine 53 of Mcm2 subunit is a well-characterized target site for DDK mediated phosphorylation. We quantitated levels of phosphorylation on this site as a measure of DDK activity in vivo. […] Cells were then harvested at 0, 24, 48, and 72 hours post drug addition to measure viable cells and Mcm2 phosphorylation by immunoblotting.

Eight tumor cell lines = assay: Cell viability at 5 µM inhibitor, cell line panel; format: cell-based; conditions: 72 hrs, relative to vehicle controls
purified DDK [7] = biological target: T1, purified DDK (Homo sapiens, UniProt O00311); assay: In vitro (γ)-32P ATP DDK kinase assay (DDK auto-phosphorylation); format: biochemical; conditions: increasing inhibitor concentrations
T1 construct: His6-Smt3 (SUMO) (N, cleaved yes); made in house; host or cells: E. coli BL21-RIPL (pKT37, pETDuet-1 vector)

purified DDK [8] = biological target: T1, purified DDK; assay: DDK thermal stability shift assay (TSA); format: binding
PKR = system: PKR; set-up: method as in PMID 12890478; conditions: cited from earlier work
[9] = titration, beginning at a 1 µM concentration

T1 sequence (O00311 whole entry): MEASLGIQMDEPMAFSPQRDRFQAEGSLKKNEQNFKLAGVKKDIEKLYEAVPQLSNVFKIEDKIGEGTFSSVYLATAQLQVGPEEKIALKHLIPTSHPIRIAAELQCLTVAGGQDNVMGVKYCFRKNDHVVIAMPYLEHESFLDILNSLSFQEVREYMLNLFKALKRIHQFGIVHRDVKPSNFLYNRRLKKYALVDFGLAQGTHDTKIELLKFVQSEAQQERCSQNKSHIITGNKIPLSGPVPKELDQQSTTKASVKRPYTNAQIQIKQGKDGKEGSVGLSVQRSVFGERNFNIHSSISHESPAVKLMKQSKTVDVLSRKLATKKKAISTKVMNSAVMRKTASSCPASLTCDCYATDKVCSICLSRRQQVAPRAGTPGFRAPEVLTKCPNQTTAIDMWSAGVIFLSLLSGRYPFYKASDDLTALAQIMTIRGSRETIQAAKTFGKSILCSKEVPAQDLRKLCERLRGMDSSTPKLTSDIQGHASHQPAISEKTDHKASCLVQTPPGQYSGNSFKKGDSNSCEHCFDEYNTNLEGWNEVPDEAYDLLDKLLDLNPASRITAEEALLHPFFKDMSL
T1 sequence (Q9UBU7 341-674 partner limits assumed): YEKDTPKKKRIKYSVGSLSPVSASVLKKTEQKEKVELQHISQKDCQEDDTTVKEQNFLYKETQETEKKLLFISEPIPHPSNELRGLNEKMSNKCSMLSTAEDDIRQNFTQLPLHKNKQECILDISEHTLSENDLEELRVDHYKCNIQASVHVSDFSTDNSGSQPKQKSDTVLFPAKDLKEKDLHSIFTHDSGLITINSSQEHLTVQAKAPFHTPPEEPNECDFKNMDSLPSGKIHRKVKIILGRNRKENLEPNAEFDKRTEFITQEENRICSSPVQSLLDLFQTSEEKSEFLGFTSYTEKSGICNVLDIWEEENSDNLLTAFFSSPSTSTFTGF

Molecule: N#Cc1ccc2ccn(-c3cc(N)ncn3)c2n1 [1-(6-aminopyrimidin-4-yl)pyrrolo[2,3-b]pyridine-6-carbonitrile]
- IC50 (DDK): 9 nM

Molecule: NC(=O)c1cc(-c2ccnc(N)n2)[nH]c1-c1ccccc1 [5-(2-Amino-pyrimidin-4-yl)-2-phenyl-1H-pyrrole-3-carboxamide]
- IC50 (DDK): 22 nM

Molecule: C=CCc1c(C)nc2sc3c(N)ncnc3c2c1C [7,9-dimethyl-8-prop-2-enylpyrido[2,3]thieno[2,4-d]pyrimidin-4-amine]
- IC50 (DDK): 20 nM

Molecule: O=C1N=C(NCc2ccccc2)S/C1=C\c1c[nH]c2ncccc12 [(5Z)-2-(Benzylamino)-5-(1H-pyrrolo[2,3-b]pyridin-3-ylmethylene)-1,3-thiazol-4(5H)-one]
- IC50 (DDK): 9 nM

Molecule: O=C1NCCc2[nH]c(-c3ccncc3)cc21 [PHA-767491, 2-pyridin-4-yl-1,5,6,7-tetrahydro-pyrrolo[3,2-c]pyridin-4-one]
- IC50 (purified Cdk9): 34 nM
- Apoptosis induction (Caspase 3/7 activity) (Colo-205 cells [1]): induced apoptosis
- IC50 (human cell lines): 3.17 µM
- IC50 (DDK; purified kinase ref 42,43): 10 nM
- IC50 (Colo-205 cells [2]): 1300 nM
- Mcm2 phosphorylation [3]: completely abolished Mcm2 phosphorylation
- Apoptosis induction (Caspase 3/7 activity) (HCC1954 cells [4]): induced apoptosis
- IC50 (HCT116 (p53-/-) cells): 1000 nM
- Inhibition of proliferation (MDA-MB-453): 2.5 fold
- IC50 (HCC1954 cells [5]): 640 nM
- Inhibition of proliferation (MCF-7): 2 fold
- IC50 (HCT116 (p53+/+) cells): 450 nM
- Mcm2 phosphorylation ([6]; HCC1954, 1 µM, 24 to 72 hours): very little residual Mcm2 phosphorylation
- Mcm2 phosphorylation ([6]; HCC1954, 2 µM, by 24 hours): completely abolished Mcm2 phosphorylation
- Anti-proliferative activity (Eight tumor cell lines): significantly inhibited proliferation in all cell lines tested

Molecule: Cc1ccc([N+](=O)[O-])cc1S(=O)(=O)N(C)/N=C/c1cnc2ccc(Br)cn12 [PI 3-Kα Inhibitor VIII, N-((1E)-(6-Bromoimidazo[1,2-a]pyridin-3-yl)methylene)-N'-methyl-N''-(2-methyl-5-nitrobenzene)sulfonohydrazide, HCl]
- IC50 (purified DDK [7]): 1300 nM
- ΔTm at 20 µM (purified DDK [8]; library screen, 20 µM compound): 2.6 °C

Molecule: O=C1Nc2ccc3ncsc3c2/C1=C/c1cnc[nH]1 [PKR inhibitor, (8Z)-8-(1H-imidazol-5-ylmethylidene)-6H-pyrrolo[2,3-g][1,3]benzothiazol-7-one]
- Increase of Caspase 3/7 activity relative to the DMSO control (HCC1954 cells [4]; HCC1954, 2 µM, 24 hours): 20 fold
- IC50 (PKR): 210 nM
- IC50 (purified DDK [7]): 67.5 nM and ~70 nM
- IC50 (HCC1954 cells [5]; HCC1954, 72 h): 1700 nM
- Mcm2 phosphorylation ([6]; HCC1954, 2 µM PKR inhibitor): strongly inhibited Mcm2 phosphorylation
- ΔTm at 20 µM (purified DDK [8]; library screen, 20 µM compound): 2.4 °C
- ΔTm (purified DDK [8]; [9]): ≥ 2 °C

Molecule: c1ccc2c(-c3ccncc3)c[nH]c2c1 [Rockout, 3-pyridin-4-yl-1H-indole]
- IC50 (purified DDK [7]): 860 nM
- ΔTm (purified DDK [8]; [9]): ≥ 2 °C

Molecule: C[S+]([O-])c1ccc(-c2nc(-c3ccc(F)cc3)c(-c3ccncc3)[nH]2)cc1.Cl (stereo not shown) [SB 203580 hydrochloride]
- ΔTm (purified DDK [8]; library screen, 20 µM compound): 0 °C

Molecule: CS(=O)(=O)c1ccc(-c2nc(-c3ccc(F)cc3)c(-c3ccncc3)[nH]2)cc1 [SB 203580, Sulfone]
- ΔTm (purified DDK [8]; 20 µM): 0.5 °C

Molecule: O=C1NC(=O)c2c1c1c3ccccc3n3c1c1c2c2ccccc2n1[C@H]1CC[C@@H]3O1 [SB 218078]
- Apoptosis induction (Caspase 3/7 activity) (HCC1954 cells [4]): low levels of apoptosis were induced
- IC50 (purified DDK [7]): 19.3 nM
- IC50 (HCC1954 cells [5]; HCC1954, 72 h): 2420 nM
- Mcm2 phosphorylation ([6]; HCC1954, SB 218078): modestly inhibits Mcm2 phosphorylation
- ΔTm (purified DDK [8]; [9]): ≥ 2 °C

Molecule: NC(=O)c1ccc(-c2nc(-c3ccc4c(c3)OCO4)c(-c3ccccn3)[nH]2)cc1 [SB 431542]
- ΔTm at 20 µM (purified DDK [8]; library screen, 20 µM compound): 0 °C

Molecule: N#C/C(=C(\N)Sc1ccc(N)cc1)c1ccccc1C(F)(F)F [SL 327]
- ΔTm at 20 µM (purified DDK [8]; library screen, 20 µM compound): 0.5 °C

Molecule: Oc1c2ccccc2c2c3c(cccc13)N=N2 [SP 600125]
- ΔTm at 20 µM (purified DDK [8]; library screen, 20 µM compound): 0.2 °C

Molecule: O=C(O)c1ccc2c3c1cccc3c(=O)n1c3ccccc3nc21 [STO-609]
- ΔTm at 20 µM (purified DDK [8]; library screen, 20 µM compound): 0.2 °C

Molecule: CN(C)S(=O)(=O)c1ccc2c(c1)/C(=C/c1cc3c([nH]1)CCCC3)C(=O)N2 [SU6656]
- ΔTm at 20 µM (purified DDK [8]; library screen, 20 µM compound): 0.1 °C

Molecule: COc1ccc2c(c1)/C(=C/c1cnc[nH]1)C(=O)N2 [SU9516]
- ΔTm at 20 µM (purified DDK [8]; library screen, 20 µM compound): 0 °C

Molecule: CCN(CC)CCNC(=O)c1c(C)[nH]c(/C=C2\C(=O)Nc3ccc(Cl)cc32)c1C [SU11652]
- ΔTm at 20 µM (purified DDK [8]; library screen, 20 µM compound): 1.8 °C

Molecule: CN(C)c1ccc(/C=C2\C(=O)Nc3ccccc32)cc1 [SU 4312]
- ΔTm (purified DDK [8]; library screen, 20 µM compound, 20 µM): 0.2 °C

Molecule: Cl.Cl.NCCNc1ncc(C(N)=O)c(Nc2cccc(C(F)(F)F)c2)n1 [Syk Inhibitor II]
- ΔTm (purified DDK [8]; library screen, 20 µM compound): 1.2 °C

Molecule: Brc1c(Br)c(Br)c2[nH]nnc2c1Br [TBB, 4,5,6,7-Tetrabromobenzotriazole]
- ΔTm (purified DDK [8]; library screen, 20 µM compound): 2.5 °C

Molecule: CNC1CC2OC(C)(C1OC)n1c3ccccc3c3c4c(c5c6ccccc6n2c5c31)C(=O)NC4O (stereo not shown) [UCN-01, 7-Hydroxystaurosporine]
- ΔTm at 10 µM (purified DDK [8]; library screen, 10 µM compound): 2.1 °C

Molecule: COc1cc2ncnc(Nc3cccc(O)c3)c2cc1OC [WHI-P180, Hydrochloride]
- ΔTm (purified DDK [8]; library screen, 20 µM compound): 0 °C

Molecule: COc1cc2ncnc(Nc3ccc(Cl)cc3F)c2cc1OC.Cl [ZM 306416 hydrochloride]
- ΔTm (purified DDK [8]; library screen, 20 µM compound): 0 °C

Molecule: Cc1ccc(NC(=O)c2cccc(N(C)C)c2)cc1NC(=O)c1ccc(O)cc1 [ZM 336372]
- ΔTm (purified DDK [8]; library screen, 20 µM compound): 0.5 °C

Molecule: Nc1nccc(-c2cc3c([nH]2)[C@@H](CCF)CNC3=O)n1 [[(S )-2-(2-aminopyrimidin-4-yl)-7-(2-fluoro-ethyl)-1,5,6,7-tetrahydropyrrolo[3,2-c]pyridin-4-one]
- IC50 (DDK): 2 nM

Molecule: CCCCCCCCCCCCCCCCn1cc[n+](Cc2ccccc2)c1C.[I-] [eEF-2 Kinase Inhibitor, NH125]
- ΔTm (purified DDK [8]; library screen, 20 µM compound): 0 °C

Molecule: Bisindolylmaleimide III, Hydrochloride
- ΔTm (purified DDK [8]; library screen, 20 µM compound): 51 °C

Molecule: Cdk1/2 Inhibitor III
- ΔTm (purified DDK [8]; library screen, 20 µM compound): 1.1 °C

Molecule: DNA-PK Inhibitor III
- ΔTm (purified DDK [8]; library screen, 20 µM compound): 0.2 °C

Molecule: IGF-1R Inhibitor II
- ΔTm (purified DDK [8]; library screen, 20 µM compound): 0 °C

Molecule: JAK3 Inhibitor II
- ΔTm (purified DDK [8]; library screen, 20 µM compound): 0.8 °C

Molecule: JAK3 Inhibitor IV
- ΔTm (purified DDK [8]; library screen, 20 µM compound): 0.3 °C

Molecule: JAK Inhibitor I
- ΔTm (purified DDK [8]; library screen, 20 µM compound): 1.2 °C

Molecule: KN-62
- ΔTm (purified DDK [8]; library screen, 20 µM compound): 0.7 °C

Molecule: LY 364947
- ΔTm (purified DDK [8]; library screen, 20 µM compound): 0.6 °C

Molecule: PI 3-Kb Inhibitor II
- ΔTm (purified DDK [8]; library screen, 20 µM compound): 0.2 °C

Molecule: PP1 Analog II, 1NM-PP1
- ΔTm (purified DDK [8]; library screen, 20 µM compound): 0.2 °C

Molecule: Ro-31-8220
- ΔTm (purified DDK [8]; library screen, 20 µM compound): 1.4 °C

Molecule: VEGF Receptor Tyrosine Kinase Inhibitor II
- ΔTm (purified DDK [8]; library screen, 20 µM compound): 0.2 °C

Molecule: Wee1/Chk1 Inhibitor
- ΔTm (purified DDK [8]; library screen, 20 µM compound): 0 °C
